Experimental data taken from ChEMBL document CHEMBL1201862, “PubChem BioAssay data set” (2004).
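Protocol summary: plate cells (96-well), add compound at 5 concentrations, incubate 48 h, interpolate endpoints linearly. Abbreviation: GI50, concentration required for 50% inhibition of growth.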 Active and inactive are the calls of the source. Rule as the data show it: active = GI50 up to about 1.1 µM and inactive = higher.

Tests used:
Assay in all cases: inhibition of tumour cell growth, NCI panel, 48 h
[1] = system: HOP-18
[2] = system: DMS-273
[3] = system: LXFL 529
[4] = system: XF498
[5] = system: RXF 631
[6] = system: SNB-78
[7] = system: DLD-1
[8] = system: M19-MEL
[9] = system: DMS-114

| SMILES | GI50 [1] | GI50 [2] | GI50 [3] | GI50 [4] | GI50 [5] | GI50 [6] | GI50 [7] | GI50 [8] | GI50 [9] |
| --- | --- | --- | --- | --- | --- | --- | --- | --- | --- |
| CCOC(=N)/C(=C1\OC(=N)C(c2ccc(Cl)cc2)=C1O)c1ccc(Cl)cc1 | 19 µM (inactive) | 14.7 µM (inactive) | 14.7 µM (inactive) | 11.4 µM (inactive) | 25.2 µM (inactive) | 25.6 µM (inactive) | 15.2 µM (inactive) | 16.9 µM (inactive) | 17.3 µM (inactive) |
| Nc1ncnc2c1ncn2[C@]1(CO)C=C(CO)C(O)C1O (stereo partly drawn) | > 100 µM (inactive) | > 100 µM (inactive) | > 100 µM (inactive) | > 100 µM (inactive) | > 100 µM (inactive) | > 100 µM (inactive) | > 100 µM (inactive) |  | > 100 µM (inactive) |
| COc1cc(C(C)O)c[n+](CCC2CNc3ccccc32)c1 (stereo not drawn) |  | > 100 µM (inactive) | > 100 µM (inactive) | > 100 µM (inactive) |  |  | > 100 µM (inactive) | > 100 µM (inactive) | 91.4 µM (inactive) |
| COc1ccc2c(-c3cc4ccccc4o3)cc(=O)oc2c1 | 48.6 µM (inactive) | 61.8 µM (inactive) | > 76.2 µM (inactive) | 21.3 µM (inactive) | 36.9 µM (inactive) | 35.2 µM (inactive) | > 100 µM (inactive) | > 100 µM (inactive) |  |
| O=C(C[n+]1ccccc1)N/N=C(/CCC(=O)N(Cc1ccccc1)Cc1ccccc1)CC(=O)c1ccccc1 | > 100 µM (inactive) | > 100 µM (inactive) | > 100 µM (inactive) |  | > 100 µM (inactive) | > 100 µM (inactive) | > 100 µM (inactive) | > 100 µM (inactive) | > 100 µM (inactive) |
| N#C/C(=C\c1ccc(O)c(O)c1)c1c(C#N)c(N)nn1-c1ccccc1 | 1.04 µM (active) | 6.92 µM (inactive) | 8.65 µM (inactive) |  |  | 14.6 µM (inactive) | 18.5 µM (inactive) | 7.4 µM (inactive) |  |
| O=C(N/C(=C\c1ccc(/C=C(\NC(=O)c2ccccc2)c2nc3c(O)nc(S)nc3[nH]2)cc1)c1nc2c(O)nc(S)nc2[nH]1)c1ccccc1 | > 100 µM (inactive) | > 100 µM (inactive) | 35.9 µM (inactive) | > 100 µM (inactive) | 62.4 µM (inactive) | > 100 µM (inactive) | 64.9 µM (inactive) |  | 34.3 µM (inactive) |
| CC[C@@]1(O)C(=O)OCc2c1cc1n(c2=O)Cc2cc3c(N)cccc3nc2-1 [9-AMINOCAMPTOTHECIN] | 0.0277 µM (active) | < 0.01 µM (active) | 0.244 µM (active) | 0.143 µM (active) | 0.0375 µM (active) | 0.574 µM (active) | 0.566 µM (active) | 0.0198 µM (active) | < 0.01 µM (active) |
| CC12O[C@H](c3ccccc3)[C@H](c3ccccc3)N1C(=O)C1(C(=O)OCc3ccccc3)CC12 (stereo partly drawn) |  | 80 µM (inactive) | 26.6 µM (inactive) | 78.9 µM (inactive) | > 100 µM (inactive) |  | 88.1 µM (inactive) | > 100 µM (inactive) | 39.6 µM (inactive) |
| O/N=C1/CCC/C1=C\c1ccccc1 | > 100 µM (inactive) | > 100 µM (inactive) | > 100 µM (inactive) | 29.9 µM (inactive) |  | > 100 µM (inactive) | > 100 µM (inactive) | > 10 µM (inactive) |  |
| CC(C)c1c2[nH]c3ccccc3c2c(C(C)C)c2[nH]c3ccccc3c12 | > 100 µM (inactive) | 81.5 µM (inactive) | > 100 µM (inactive) | > 100 µM (inactive) | > 100 µM (inactive) | > 100 µM (inactive) | > 78.7 µM (inactive) | > 100 µM (inactive) | > 100 µM (inactive) |
| CC1(C)OC2CC3COC(=O)C3CC2O1 (stereo not drawn) | > 100 µM (inactive) | > 100 µM (inactive) | > 100 µM (inactive) |  | > 100 µM (inactive) | > 100 µM (inactive) | > 100 µM (inactive) | > 100 µM (inactive) | > 100 µM (inactive) |
| CC(=O)O/N=C/c1ncccc1CO | > 100 µM (inactive) | > 100 µM (inactive) | > 100 µM (inactive) | > 100 µM (inactive) | > 100 µM (inactive) |  | > 100 µM (inactive) | > 100 µM (inactive) | > 100 µM (inactive) |
| CCOC(=O)[C@H]1Nc2ccc(Cl)cc2[C@H]2c3ccccc3O[C@H]21 | > 100 µM (inactive) | 30.1 µM (inactive) | 32.1 µM (inactive) | > 100 µM (inactive) | > 100 µM (inactive) | > 100 µM (inactive) | 63 µM (inactive) | > 100 µM (inactive) | > 100 µM (inactive) |
| Cc1ccc(NC(=O)CCc2nc(N)nc(N)c2-c2ccccc2)cc1C | > 100 µM (inactive) | > 100 µM (inactive) | > 100 µM (inactive) | > 100 µM (inactive) | > 100 µM (inactive) | > 100 µM (inactive) | > 100 µM (inactive) | > 100 µM (inactive) | > 100 µM (inactive) |
| O=[N+]([O-])c1ccccc1/C=N/C12CC3CC(CC(C3)C1)C2 | > 100 µM (inactive) | 34.6 µM (inactive) | 45.5 µM (inactive) | > 100 µM (inactive) | > 100 µM (inactive) | 47.1 µM (inactive) | 36.4 µM (inactive) | > 100 µM (inactive) |  |
| CC(C)COC1Sc2ccccc2S1 | 16.5 µM (inactive) | 19.8 µM (inactive) | 20.7 µM (inactive) | > 10 µM (inactive) |  | 27.9 µM (inactive) | 16.4 µM (inactive) |  | 12.5 µM (inactive) |
| CN(C)C(=O)c1ccc([N+](=O)[O-])cc1 |  | > 100 µM (inactive) | > 100 µM (inactive) |  |  | > 100 µM (inactive) | > 100 µM (inactive) | > 100 µM (inactive) | > 100 µM (inactive) |
| Cc1cc(O)cc2oc(=O)c3c(O)cc(O)cc3c12 [ALTERNARIOL] | 26.8 µM (inactive) | 23 µM (inactive) | 59.6 µM (inactive) | 27.1 µM (inactive) |  | 34.5 µM (inactive) | 30.7 µM (inactive) | 58.6 µM (inactive) | 34.4 µM (inactive) |
